Test results as given in patent publication US10183943B2, “Heterocyclic compounds and their use in preventing or treating bacterial infections” (MUTABILIS, priority 2015, dated 2019).
pIC50: −log10 of the molar value.

Columns and labels:
CTX-M-15 = target: T1, CTX-M-15 (Escherichia coli, UniProt Q9EXV5); test: β-lactamase inhibitory activity, determination of IC50 (nitrocefin hydrolysis); format: biochemical; details: class (A); nitrocefin 200 μM, 30 min pre-incubation; read-out: IC50 β-lactamase CTX-M-15
T1 construct: made in house; host or cells: E. coli
T1 sequence (Q9EXV5 entry or part of it): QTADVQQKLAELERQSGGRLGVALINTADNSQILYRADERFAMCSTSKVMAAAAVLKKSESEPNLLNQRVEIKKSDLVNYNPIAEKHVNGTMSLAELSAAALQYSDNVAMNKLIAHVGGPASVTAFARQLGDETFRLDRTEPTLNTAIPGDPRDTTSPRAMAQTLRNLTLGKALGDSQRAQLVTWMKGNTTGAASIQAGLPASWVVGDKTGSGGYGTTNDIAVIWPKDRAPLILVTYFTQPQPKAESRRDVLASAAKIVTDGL

KPC-2 = target: T2, KPC-2 (Klebsiella pneumoniae, UniProt Q9F663); test: as above; format: biochemical; details: class (A); nitrocefin 200 μM, 30 min pre-incubation; read-out: IC50 β-lactamase KPC-2
T2 construct: made in house; host or cells: E. coli
T2 sequence (Q9F663 25-293 limits assumed): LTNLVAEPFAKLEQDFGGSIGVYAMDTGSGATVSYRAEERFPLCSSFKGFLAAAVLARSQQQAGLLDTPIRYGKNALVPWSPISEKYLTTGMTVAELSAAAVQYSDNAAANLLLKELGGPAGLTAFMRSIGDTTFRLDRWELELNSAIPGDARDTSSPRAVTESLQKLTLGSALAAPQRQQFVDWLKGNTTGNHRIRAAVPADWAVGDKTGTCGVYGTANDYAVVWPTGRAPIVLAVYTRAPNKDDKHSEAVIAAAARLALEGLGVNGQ

OXA-48 = target: T3, OXA-48 (Klebsiella pneumoniae, UniProt Q6XEC0); test: as above; format: biochemical; details: class (D); nitrocefin 200 μM, 30 min pre-incubation; read-out: IC50 β-lactamase OXA-48
T3 construct: made in house; host or cells: E. coli
T3 sequence (Q6XEC0 23-265 limits assumed): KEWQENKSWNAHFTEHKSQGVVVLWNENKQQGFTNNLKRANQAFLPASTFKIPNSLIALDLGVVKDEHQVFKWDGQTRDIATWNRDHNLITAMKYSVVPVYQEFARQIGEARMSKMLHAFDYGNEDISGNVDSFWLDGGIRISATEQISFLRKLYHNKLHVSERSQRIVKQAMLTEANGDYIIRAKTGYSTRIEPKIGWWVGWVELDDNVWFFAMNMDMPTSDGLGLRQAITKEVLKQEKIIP

AmpC (P99) = AmpC (P99) (Enterobacter cloacae, UniProt P05364); test: as above
Chain of AmpC (P99) (P05364 21-381): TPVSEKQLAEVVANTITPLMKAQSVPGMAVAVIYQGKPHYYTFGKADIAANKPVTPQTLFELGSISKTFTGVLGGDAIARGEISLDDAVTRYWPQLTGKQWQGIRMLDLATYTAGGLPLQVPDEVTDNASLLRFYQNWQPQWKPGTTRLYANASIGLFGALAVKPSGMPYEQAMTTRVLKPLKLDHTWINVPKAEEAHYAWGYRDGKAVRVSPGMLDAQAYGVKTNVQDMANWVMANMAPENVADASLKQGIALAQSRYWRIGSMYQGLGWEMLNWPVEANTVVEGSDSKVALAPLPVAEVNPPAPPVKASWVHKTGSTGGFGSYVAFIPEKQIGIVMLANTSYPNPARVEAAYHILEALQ

TEM-1 = target: T4, TEM-1 (Escherichia coli, UniProt P62593); test: as above; format: biochemical
T4 construct: made in house; host or cells: E. coli
T4 sequence (P62593 24-286 limits assumed): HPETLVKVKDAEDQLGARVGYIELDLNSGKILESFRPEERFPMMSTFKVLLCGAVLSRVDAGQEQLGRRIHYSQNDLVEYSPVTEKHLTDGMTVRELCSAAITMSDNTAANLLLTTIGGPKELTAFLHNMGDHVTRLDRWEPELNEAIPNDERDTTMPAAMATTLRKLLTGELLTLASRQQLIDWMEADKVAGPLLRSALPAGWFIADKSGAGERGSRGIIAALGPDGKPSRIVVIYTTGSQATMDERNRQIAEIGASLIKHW

OXA-1 = target: T5, OXA-1 (Escherichia coli, UniProt P13661); test: as above; format: biochemical; details: class (D); nitrocefin 200 μM, 30 min pre-incubation; read-out: IC50 β-lactamase OXA-1
T5 construct: made in house; host or cells: E. coli
T5 sequence (P13661 26-276): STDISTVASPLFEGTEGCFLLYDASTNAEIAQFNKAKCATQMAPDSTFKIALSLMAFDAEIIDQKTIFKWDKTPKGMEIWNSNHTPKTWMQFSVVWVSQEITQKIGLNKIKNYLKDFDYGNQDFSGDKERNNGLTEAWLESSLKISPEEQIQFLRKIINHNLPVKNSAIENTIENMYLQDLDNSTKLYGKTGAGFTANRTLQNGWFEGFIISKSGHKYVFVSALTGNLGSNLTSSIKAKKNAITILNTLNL

AmpC P. aeruginosa = AmpC P. aeruginosa (Pseudomonas aeruginosa, UniProt P24735); test: as above
Chain of AmpC P. aeruginosa (P24735 27-397): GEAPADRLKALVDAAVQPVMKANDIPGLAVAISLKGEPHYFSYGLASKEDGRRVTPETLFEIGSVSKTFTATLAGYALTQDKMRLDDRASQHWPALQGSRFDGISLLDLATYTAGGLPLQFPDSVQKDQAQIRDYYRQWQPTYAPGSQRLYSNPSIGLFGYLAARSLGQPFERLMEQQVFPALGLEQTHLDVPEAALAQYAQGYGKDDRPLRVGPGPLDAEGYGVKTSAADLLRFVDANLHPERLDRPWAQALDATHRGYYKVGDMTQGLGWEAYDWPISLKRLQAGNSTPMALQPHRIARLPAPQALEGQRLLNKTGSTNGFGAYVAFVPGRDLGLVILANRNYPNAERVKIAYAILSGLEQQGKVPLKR

OXA-15 = target: T6, OXA-15 (Pseudomonas aeruginosa, UniProt Q51574); test: biochemical
T6 construct: made in house; host or cells: E. coli
T6 sequence (Q51574 22-275): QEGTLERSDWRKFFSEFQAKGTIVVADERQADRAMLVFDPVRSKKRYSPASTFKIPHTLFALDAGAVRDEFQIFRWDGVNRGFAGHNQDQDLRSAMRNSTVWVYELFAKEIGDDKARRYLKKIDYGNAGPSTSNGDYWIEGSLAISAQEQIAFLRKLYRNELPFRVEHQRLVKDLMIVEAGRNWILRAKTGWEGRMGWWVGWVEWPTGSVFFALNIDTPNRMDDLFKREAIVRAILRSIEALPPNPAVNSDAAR

E. cloacae P99 (AmpC) = test: MIC of compounds alone, broth microdilution; format: cell-based; details: Enterobacter cloacae; strain P99 (E. cloacae); read-out: MIC compounds of the invention alone
Method: (§1) Method 2: MIC of Compounds and Synergy with Ceftazidime Against Bacterial Isolates (Table 2 and 3)
(§2) Compounds of the present invention were assessed against genotyped bacterial strains alone or in combination with the β-lactam ceftazidime (CAZ). In the assays, MICs of said compounds, or of ceftazidime at fixed concentrations of said compounds were determined by the broth microdilution method according to the Clinical Laboratory Standards Institute (CLSI-M7-A7). Briefly, compounds alone according to the invention were prepared in DMSO and spotted (2 μL each) on sterile polystyrene plates (Corning, 3788). Compounds and ceftazidime dilutions were prepared in DMSO and spotted (1 μL each) on sterile polystyrene plates (Corning, 3788). Log phase bacterial suspensions were adjusted to a final density of 5×10^5 cfu/mL in cation-adjusted Mueller-Hinton broth (Becton-Dickinson) and added to each well (98 μL). Microplates were incubated for 16-20 h at 35° C. in ambient air. The MIC of the compounds was defined as the lowest concentration of said compounds that prevented bacterial growth as read by visual inspection. The MIC of ceftazidime at each compound concentration was defined as the lowest concentration of ceftazidime that prevented bacterial growth as read by visual inspection.

[1] = system: K. pneumoniae 6299 (TEM-1, SHV-11, OXA-163); test: MIC of compounds alone, broth microdilution; format: cell-based; details: Klebsiella pneumoniae; strain 6299 (K. pneumoniae); read-out: MIC compounds of the invention alone
Method: as §1, §2

[2] = system: E. coli 190317 (TEM-1, SHV-12, CTX-M-15, OXA-1); test: MIC of compounds alone, broth microdilution; format: cell-based; details: Escherichia coli, read-out: MIC compounds of the invention alone
Method: as §1, §2

[3] = system: K. pneumoniae BAA-1898 (TEM-1, SHV-11, SHV-12, KPC-2); test: MIC of compounds alone, broth microdilution; format: cell-based; details: Klebsiella pneumoniae, BAA1898; strain BAA-1898 (K. pneumoniae); read-out: MIC compounds of the invention alone
Method: as §1, §2

[4] = system: P. aeruginosa CIP107051 (TEM-24); test: MIC of compounds alone, broth microdilution; format: cell-based; details: Pseudomonas aeruginosa; strain CIP107051 (P. aeruginosa); read-out: MIC compounds of the invention alone
Method: as §1, §2

[5] = system: K. pneumoniae UFR39 (CTX-M-15, NDM-1); test: MIC of compounds alone, broth microdilution; format: cell-based; details: Klebsiella pneumoniae; strain UFR39 (K. pneumoniae); read-out: MIC compounds of the invention alone
Method: as §1, §2

OXA-11 = target: T7, OXA-11 (Pseudomonas aeruginosa, UniProt Q06778); test: β-lactamase inhibitory activity, determination of IC50 (nitrocefin hydrolysis); format: biochemical
T7 construct: made in house; host or cells: E. coli
T7 sequence (Q06778 21-266): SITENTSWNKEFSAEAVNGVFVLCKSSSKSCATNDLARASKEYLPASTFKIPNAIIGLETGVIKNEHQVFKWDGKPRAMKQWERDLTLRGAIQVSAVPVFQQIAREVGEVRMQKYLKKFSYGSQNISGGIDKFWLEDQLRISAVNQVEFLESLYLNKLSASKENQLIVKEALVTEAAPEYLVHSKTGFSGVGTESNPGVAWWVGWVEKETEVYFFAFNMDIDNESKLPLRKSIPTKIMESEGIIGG

SHV-1 = target: T8, SHV-1 (Klebsiella pneumoniae, UniProt P0AD64); test: as above; format: biochemical
T8 construct: made in house; host or cells: E. coli
T8 sequence (P0AD64 22-286): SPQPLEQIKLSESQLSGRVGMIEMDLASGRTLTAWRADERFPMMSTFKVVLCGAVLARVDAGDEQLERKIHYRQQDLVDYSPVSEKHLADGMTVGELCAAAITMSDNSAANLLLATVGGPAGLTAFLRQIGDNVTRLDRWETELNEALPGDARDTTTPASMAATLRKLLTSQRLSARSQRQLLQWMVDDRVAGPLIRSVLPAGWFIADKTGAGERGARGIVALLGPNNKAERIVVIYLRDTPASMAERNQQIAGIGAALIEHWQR

E. coli RGN238 (OXA-1) = test: MIC of compounds alone, broth microdilution; format: cell-based; details: Escherichia coli; strain RGN238 (E. coli); read-out: MIC compounds of the invention alone
Method: as §1, §2

[6] = system: E. coli 131119 (TEM-1, OXA-48); test: MIC of compounds alone, broth microdilution; format: cell-based; details: Escherichia coli; strain 131119 (E. coli); read-out: MIC compounds of the invention alone
Method: as §1, §2

SMILES	pIC50 (CTX-M-15)	pIC50 (KPC-2)	pIC50 (OXA-48)	pIC50 (AmpC (P99))	pIC50 (TEM-1)	pIC50 (OXA-1)	pIC50 (AmpC P. aeruginosa)	pIC50 (OXA-15)	MIC (E. cloacae P99 (AmpC)) [µg/mL]	MIC [1] [µg/mL]	MIC [2] [µg/mL]	MIC [3] [µg/mL]	MIC [4] [µg/mL]	MIC [5] [µg/mL]	pIC50 (OXA-11)	pIC50 (SHV-1)	MIC (E. coli RGN238 (OXA-1)) [µg/mL]	MIC [6] [µg/mL]
O=C1N2CC(c3cn[nH]c3)=CC(C2)N1OS(=O)(=O)[O-].[Na+] (centres unmarked) [Example 43, Sodium [7-oxo-3-(1H-pyrazol-4-yl)-1,6-diazabicyclo[3.2.1]oct-3-en-6-yl] sulfate]	8.54	7.52	8.03	6.74	9.11	5.92	6.36	6.27	> 32	> 32	> 32	> 32	> 32	> 32	6.43	8.77	–	–
COc1ncc(C2=CC3CN(C2)C(=O)N3OS(=O)(=O)[O-])s1.[Na+] (centres unmarked) [Example 39, Sodium [3-(2-methoxythiazol-5-yl)-7-oxo-1,6-diazabicyclo[3.2.1]oct-3-en-6-yl] sulfate]	9.21	7.96	9.00	7.34	8.85	6.66	6.62	7.10	> 32	> 32	> 32	> 32	> 32	> 32	6.85	8.49	–	–
O=C1N2CC(c3ccccn3)=CC(C2)N1OS(=O)(=O)[O-].[Na+] (centres unmarked) [Example 42, Sodium [7-oxo-3-(2-pyridyl)-1,6-diazabicyclo[3.2.1]oct-3-en-6-yl]sulfate]	9.05	8.10	7.51	7.60	8.62	6.19	7.12	6.43	> 32	> 32	16	32	> 32	32	6.92	8.54	–	–
O=C1N2CC(c3nc4cccnc4s3)=CC(C2)N1OS(=O)(=O)[O-].[Na+] (centres unmarked) [Example 40, Sodium (7-oxo-3-thiazolo[5,4-b]pyridin-2-yl-1,6-diazabicyclo[3.2.1]oct-3-en-6-yl) sulfate]	8.92	8.66	8.57	8.00	9.46	6.92	6.64	7.11	> 32	> 32	> 32	> 32	> 32	> 32	7.21	8.96	–	–
Cn1nccc1C1=CCN2CC1N(OS(=O)(=O)[O-])C2=O.[Na+] (centres unmarked) [Example 2, Sodium [4-(2-methylpyrazol-3-yl)-7-oxo-1,6-diazabicyclo[3.2.1]oct-3-en-6-yl] sulfate]	7.48	5.92	8.55	6.17	8.57	7.19	6.02	8.01	> 32	> 32	> 32	> 32	> 32	–	6.04	8.19	> 32	> 32
O=C1N2CC=C(c3cncnc3)C(C2)N1OS(=O)(=O)[O-].[Na+] (centres unmarked) [Example 10, Sodium [4-(pyrimidin-5-yl)-7-oxo-1,6-diazabicyclo[3.2.1]oct-3-en-6-yl] sulfate]	8.08	6.89	8.21	5.96	8.11	6.70	5.59	6.85	16	> 32	> 32	> 32	> 32	–	5.89	7.68	> 32	16
O=C1N2CC=C(c3ncco3)C(C2)N1OS(=O)(=O)[O-].[Na+] (centres unmarked) [Example 4, Sodium [4-(oxazol-2-yl)-7-oxo-1,6-diazabicyclo[3.2.1]oct-3-en-6-yl]sulfate]	8.12	6.41	8.54	5.82	8.54	6.59	6.03	7.34	16	> 32	8	> 32	> 32	–	6.10	8.08	32	16
Cn1cc(C2=CCN3CC2N(OS(=O)(=O)[O-])C3=O)ccc1=O.[Na+] (centres unmarked) [Example 8, Sodium [4-(N-methyl-6-oxo-3-pyridyl)-7-oxo-1,6-diazabicyclo[3.2.1]oct-3-en-6-yl] sulfate]	7.92	6.77	8.66	5.72	8.09	6.16	5.48	6.85	> 32	> 32	8	> 32	> 32	–	5.85	7.72	> 32	> 32
O=C1N2CC=C(c3cnccn3)C(C2)N1OS(=O)(=O)[O-].[Na+] (centres unmarked) [Example 12, Sodium [4-(pyrazin-2-yl)-7-oxo-1,6-diazabicyclo[3.2.1]oct-3-en-6-yl]sulfate]	8.24	6.51	8.49	5.85	8.51	6.46	5.80	7.18	> 32	> 32	> 32	> 32	> 32	–	5.92	8.16	> 32	16
